The values that follow come from PubChem BioAssay (NCI).

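Compound exposure: 48 hours, 5 concentrations, 96-well plates. At the GI50, growth is halved. TGI is the concentration that stops growth completely.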

Among the test systems are SF-268 CNS; CAKI-1 renal; MOLT-4 leukemia; SN12C renal; SR leukemia; U251 CNS; MDA-MB-435; OVCAR-4 ovarian; LOX IMVI melanoma; K-562 leukemia.
What all share (assay): NCI tumour cell line growth inhibition, 48 h

As to `CCCCCCCCCCCCOC1C(CNC(=O)C2OC3OC(C)(C)OC3C2NC(=O)CN2CCCCCC2)OC2OC(C)(C)OC21` (stereo not given), the GI50 with SF-268 CNS is 5.27 µM; in the assay on CAKI-1 renal it was 13 µM; in the assay with MOLT-4 leukemia, 3.12 µM; in the assay with SN12C renal, 9.64 µM; in the assay on SR leukemia it was 2.44 µM; in the assay on U251 CNS, 4.91 µM. Also, the GI50 in the assay on MDA-MB-435 is 2.72 µM; with OVCAR-4 ovarian it was 6.47 µM; with LOX IMVI melanoma, 3.17 µM; with K-562 leukemia it was 3.43 µM. The TGI is 20.8 µM in the assay with SF-268 CNS; 26.8 µM in the assay on CAKI-1 renal; 9.85 µM with MOLT-4 leukemia; 24.6 µM in the assay on SN12C renal; 4.91 µM in the assay with SR leukemia; 15.9 µM in the assay with U251 CNS. The TGI with MDA-MB-435 is 7.9 µM; in the assay on OVCAR-4 ovarian, 20 µM; in the assay with LOX IMVI melanoma, 9.25 µM; in the assay with K-562 leukemia, 10.9 µM.
Take `O=C1CCc2c(sc3[nH]c(=S)n(Cc4ccccc4)c(=O)c23)C1`: the GI50 is 3.55 µM in the assay on SF-268 CNS; 2.54 µM in the assay on CAKI-1 renal; 4.39 µM with MOLT-4 leukemia; 3.25 µM in the assay with SN12C renal; 2.3 µM in the assay with SR leukemia; 2.14 µM with U251 CNS. Also, the GI50 in the assay with MDA-MB-435 is 3.43 µM; with OVCAR-4 ovarian, 3.99 µM; in the assay on LOX IMVI melanoma, 3.38 µM; in the assay with K-562 leukemia it was 1.76 µM. Also, the TGI with SF-268 CNS was > 100 µM; in the assay on CAKI-1 renal, 8.31 µM; in the assay with MOLT-4 leukemia, > 100 µM; in the assay on SN12C renal, > 100 µM; with SR leukemia, 8.22 µM; with U251 CNS it was > 100 µM. The TGI in the assay on MDA-MB-435 is > 100 µM; with OVCAR-4 ovarian it was > 100 µM; with LOX IMVI melanoma, 12.5 µM; with K-562 leukemia, > 100 µM.
For the molecule `C/C(Cc1ccc(Cl)cc1)=C(/c1ccc(Cl)cc1)c1ccc(OCCN(C)C)cc1`, the GI50 is 5.01 µM in the assay with SF-268 CNS; 4.63 µM in the assay on CAKI-1 renal; 4.01 µM with MOLT-4 leukemia; 4.18 µM in the assay with SN12C renal; 0.991 µM with SR leukemia; 3.72 µM in the assay with U251 CNS. For the same molecule, the GI50 was 4.52 µM in the assay on MDA-MB-435, 3.52 µM in the assay on OVCAR-4 ovarian, 3.02 µM in the assay with LOX IMVI melanoma and 0.981 µM in the assay on K-562 leukemia. Also, the TGI is 10.1 µM with SF-268 CNS; 8.98 µM in the assay with CAKI-1 renal; 10 µM with MOLT-4 leukemia; 8.59 µM in the assay on SN12C renal; 3.81 µM with SR leukemia; 8.6 µM with U251 CNS. For the same molecule, the TGI turned out to be 8.81 µM in the assay on MDA-MB-435, 7.57 µM in the assay on OVCAR-4 ovarian, 7.18 µM in the assay with LOX IMVI melanoma and 5.83 µM in the assay with K-562 leukemia.
Take `O=C(NCCCCCCCCNC(=O)c1cccc2ccccc12)c1cccc2ccccc12`: the TGI with SF-268 CNS was > 81.8 µM; in the assay with CAKI-1 renal, 52.8 µM; in the assay with MOLT-4 leukemia, > 100 µM; in the assay with SN12C renal, > 100 µM; with SR leukemia it was > 100 µM; with U251 CNS, 45.6 µM. Besides, the TGI is > 100 µM in the assay with MDA-MB-435, 19 µM in the assay on OVCAR-4 ovarian, > 100 µM with LOX IMVI melanoma and > 100 µM in the assay with K-562 leukemia.
